Assay results published in patent US7947854B2, “Bis-cationic compounds and use thereof” (The University of Sydney, priority 2003, dated 2011).
Like-named read-outs stand apart in the source and are kept apart here.

Tested on: ten randomly selected isolates of T. tonsurans
Test: Susceptibility of ten T. tonsurans isolates, broth microdilution NCCLS M38-P
Type: cell-based
Details: for MIC: Trichophyton tonsurans
Description: Isolates were tested using the method described in the National Committee for Clinical Laboratory Standards (NCCLS) document M38-P for filamentous fungi, with dermatophyte specific modifications described by Fernández-Torres et al, Current topics in Medical Mycology, 14-19 Feb. 1999.
Five dermatophyte isolates were, namely; T. rubrum, T. mentagrophytes, T. tonsurans, M. canis and M. gypseum, all of which produce lipases and some, phospholipase. These isolates were tested by the broth microdilution method according to NCCLS document M38-P, for activity against selected antifungal agents. In addition, ten randomly selected isolates of T. tonsurans were also tested. All isolates were maintained on SDA at 28° C. Candida parapsilosis (ATCC 20019) was used as the reference control is organism.
The microdilution plates used were a single lot of RPMI 1640 basal medium (JRH bioScience Inc. Lenexa, Kans., USA) with L-glutamine and without sodium bicarbonate, buffered to pH 7.0, at 25° C., with 0.165 M (MOPS) morpholinepropanesulfonic acid (Sigma).
Powdered drugs were dissolved in 100% dimethyl sulfoxide (DMSO), at concentrations 100 times higher than the final test concentration. All compounds were prepared in 100% (DMSO). For ITRA and TRB, two-fold drug dilutions were prepared in 100% DMSO at 100 times the final concentration, followed by further dilution 1:50 in RPMI medium, to yield 2× the final strength required for the test.
Fungal cultures were subcultured onto Potato Dextrose Agar and grown at 28° C. for 7-10 days. Fungal suspensions were covered with 5 ml of distilled water, and then colonies were scraped off with cotton tipped swabs. The resulting mixture of conidia and hyphae elements was withdrawn, transferred to a sterile tube and then vortexed with glass beads. After the particles settled, the upper homogeneous suspension was collected and its density adjusted by a densitometer to a 0.5 McFarland standard at the wavelength of 530 nm (80-85% transmittance). These stock suspensions were then diluted 1:50 with RPMI medium to obtain final working inoculum concentration ranging from 0.3×10^4 to 9×10^4 CFU/ml. Inoculum quantification was performed by plating 100 μl of the 1:1000 dilution of the adjusted inoculum on SDA plates, incubated at 28° C., and after 7 days of incubation, the colonies were counted.
Testing was based on NCCLS M38-P document for testing filamentous moulds. Testing was carried out in sterile 96-well flat bottomed microtitre plate. Columns 1 and 3 to 12 were filled with 100 μl of RPMI medium, leaving column 2 unfilled. Columns 1, 2 and 3 were filled with 100 μl of 2× drug concentration. Serial dilutions were then made by transferring 100 μl from column 3 to each column up to column 11, and 100 μl from column 11 was discarded. Column 12 served as drug free growth control. Finally, 100 μl of inoculum suspension was added to all wells except column 1, which acted as sterility control (Columns 1 and 12 served as sterility and growth control respectively). Plates were incubated at 28° C. for 7 days, and read at 3 days and 7 days of incubation. All testing was performed in duplicate, on three separate occasions.
Growth in microtitre trays were read by visual inspection by using an illuminated-reversed mirror. Growth in each well was compared with the “growth control” drug free well. The MIC end point for all the drugs was chosen to be the first well with 100% growth inhibition (i.e. the lowest drug concentration inhibiting growth).

In the case of `CCCC[N+](CCCC)(CCCC)CCCCCCCCCCCC[N+](CCCC)(CCCC)CCCC` [Compound 3, 1,12-bis(tributylammonium)do-decane dibromide], the “MIC Range” value (T. tonsurans 1) is reported as 1.9 to 3.8 µg/mL, the “MIC Range” value (T. tonsurans 2) is reported as 0.45 to 7.6 µg/mL and the “MIC Range” value (T. tonsurans 4) is reported as 0.45 to 3.8 µg/mL. The “MIC Range” value (T. tonsurans 5) was 0.45 to 7.6 µg/mL, the “MIC Range” value (T. tonsurans 6) was 0.45 to 15.25 µg/mL and the “MIC Range” value (T. tonsurans 7) was 0.45 to 3.8 µg/mL. The “MIC Range” value (T. tonsurans 8) was 0.45 to 3.8 µg/mL, the “MIC Range” value (T. tonsurans 9) was 3.8 to 15.25 µg/mL and the “MIC Range” value (T. tonsurans 10) was 3.8 to 7.6 µg/mL. The “MIC Range” value (T.tonsurans 3) was 0.45 to 3.8 µg/mL, the MIC (T. tonsurans 1, read-out: MIC GM) was 3.02 µg/mL and the MIC (T. tonsurans 2, read-out: MIC GM) was 1.15 µg/mL. It also gave an MIC (T. tonsurans 2, read-out: MIC Mean) of 2.83 µg/mL, an MIC (T. tonsurans 4, read-out: MIC GM) of 1.87 µg/mL and an MIC (T. tonsurans 4, read-out: MIC Mean) of 2.68 µg/mL. The MIC (T. tonsurans 5, read-out: MIC GM) was 2.96 µg/mL, the MIC (T. tonsurans 5, read-out: MIC Mean) was 5.22 µg/mL and the MIC (T. tonsurans 6, read-out: MIC GM) was 4.32 µg/mL. It also gave an MIC (T. tonsurans 6, read-out: MIC Mean) of 6.94 µg/mL, an MIC (T. tonsurans 7, read-out: MIC GM) of 1.87 µg/mL and an MIC (T. tonsurans 7, read-out: MIC Mean) of 2.68 µg/mL. The MIC (T. tonsurans 8, read-out: MIC GM) was 2.48 µg/mL, the MIC (T. tonsurans 8, read-out: MIC Mean) was 3.13 µg/mL and the MIC (T. tonsurans 9, read-out: MIC GM) was 6.04 µg/mL. For the same compound, the MIC (T. tonsurans 9, read-out: MIC Mean) was 7.61 µg/mL, the MIC (T. tonsurans 10, read-out: MIC GM) was 4.52 µg/mL and the MIC (T. tonsurans 10, read-out: MIC Mean) was 4.75 µg/mL. For the same compound, the MIC (T.tonsurans 3, read-out: MIC GM) was 1.87 µg/mL, the MIC (T.tonsurans 3, read-out: MIC Mean) was 2.68 µg/mL and the MIC (read-out: MIC Mean, T. tonsurans 1) was 3.17 µg/mL.
